From paper PMC9198545, “Pharmacokinetics and Pharmacodynamics of Fungal Defensin NZX Against Staphylococcus aureus-Induced Mouse Peritonitis Model” (Frontiers in Microbiology, 2022)
Where a SMILES comes first, the peptide text is derived from it. Bridges are numbered along the chain shown (N, C = ends).

What was measured:
[1] = Serum protein binding by ultrafiltration; assay type: in vitro ADME, mouse; settings: murine serum, ultrafiltration with Centrifree Filters, ultrafiltrate by HPLC
Protocol: (§1) The 6-week-old, specific-pathogen-free, female ICR mice (starting weight, 23 to 27 g) were purchased from Beijing Vital River Laboratory Animal Technology Co., Ltd (Beijing, China). The animals were acclimatized for 2 to 3 days before the experiment. The pharmacokinetics of NZX was evaluated in uninfected female ICR mice that received a single tail vein NZX dose of 5, 10, or 20 mg/kg, respectively. After NZX administration, blood samples were collected by orbital venous from five mice per time point at 0.083 to 2 h intervals over 6 h. After centrifugation at 4,000 rpm for 20 min at 4°C, the serum was immediately separated and frozen at −80°C until analysis. Analyses of total serum concentrations of NZX were conducted by a microbiologic assay using S. aureus ATCC 6538p (CICC 10307) as the test strain (Andes et al., [2009]). […] The protein binding of NZX in serum was measured by the ultrafiltration method using Centrifree Filters (Merck Millipore Ltd., Product code: 4104), according to previously described methods by Brinch et al. ([2009]). The concentration of NZX in the ultrafiltrate was determined by HPLC methods.

[2] = Pharmacokinetics in non-infected mice, single tail vein dose; assay type: in vivo, mouse; settings: for T1/2, terminal elimination half-life / AUC, area under concentration-time curves / Cmax, peak concentration / MRT, mean residence time / Vd, apparent distribution volume: free-serum NZX; for T1/2, terminal elimination half-life: non-infected female ICR mice, microbiologic assay, non-compartment model; for AUC, area under concentration-time curves / Cmax, peak concentration / MRT, mean residence time / Vd, apparent distribution volume: non-infected mice
Protocol: as §1
The pharmacokinetic parameters of NZX in the serum were analyzed using a non-compartment model by WinNonlin software (version 8.1; Pharsight, USA). GraphPad Prism (version 9.0.1) was used for all statistical analyses. One-way ANOVA followed by Dunnett's test was performed to compare the difference between groups. A P-value <0.05 was considered as the significant difference. Kaplan Meier analysis was conducted for the survival curve; log-rank (Mantel-Cox) test analyses were used to compare the survival rate difference.

S. aureus E48 = experiment: PK/PD index determination, dose fractionation, sigmoidal Emax model; assay type: in vivo, mouse
Protocol: A dose fractionation study was applied to determine the PK/PD parameters of ƒAUC/MIC, ƒCmax/MIC, and ƒT% > MIC, and those parameters were predictive of efficacies for NZX against S. aureus E48. […] The correlations between efficacies and each PK/PD index were analyzed by non-linear least-squares regression based on the sigmoidal Emax model (Hill's equation) (Yu et al., [2016]). Hill's equation was defined as follows:
E =[…] × Ce^N/EC50N + Ce^N
where E is the observed antibacterial effect, which describes the change of log10 CFU/ml in the peritoneal fluid after 24 h of NZX treatment compared to the colony counts at the start of therapy. Emax is the change of log10 CFU/ml in the peritoneal fluid after 24 h of NZX treatment when the maximum antibacterial effect has been reached. E0 is the change of log10 CFU/ml in the peritoneal fluid between initial therapy and after 24 h therapy in untreated control animals. Ce is defined as the three PK/PD parameters (ƒAUC/MIC ratio, ƒCmax/MIC ratio, and ƒT % > MIC). EC50 is the value of the PK/PD parameter that is required to achieve 50% of the maximum antibacterial effect. N is the steepness of the fitted concentration-response curve. The coefficient of determination (R^2) between efficacy and the PK/PD parameters was used for determining the goodness of fit of the curves. In addition, the parameters required to achieve bacterial stasis (Cs), 1 log10 kill, and 2 log10 kill were calculated interpolation or extrapolation based on Hill's equation.

[3] = Stability in mouse serum by RP-HPLC; assay type: in vitro ADME; settings: 25% mouse serum spiked with 100 μg/ml NZX, 37°C, peak area ratio to initial time, read-out: peptide remaining intact
Protocol: The stability of NZX in the mouse serum was determined when placed at 37°C (Wang et al., [2020]). The stock mixture from 25% serum was spiked with 100 μg/ml NZX and vortexed well. The mixtures were incubated at 37°C. At 0, 4, 8, 12, and 24 h, samples were taken out, extracted, and analyzed by reverse-phase high-performance liquid chromatography (RP-HPLC). The results were expressed as the ratio of the peak area of the peptide at various times to that of the initial incubation time.

[4] = free NZX in serum, tail vein 5, 10, 20 mg/kg, range over doses
[5] = 5 mg/kg, 1 dose in 24 h, total dose 0.125 mg
[6] = 5 mg/kg, 2 doses in 24 h, total dose 0.25 mg
[7] = 10 mg/kg, 1 dose in 24 h, total dose 0.25 mg
[8] = 10 mg/kg, 2 doses in 24 h, total dose 0.5 mg
[9] = 20 mg/kg, 1 dose in 24 h, total dose 0.5 mg
[10] = 20 mg/kg, 2 doses in 24 h, total dose 1 mg

Compound: CC[C@H](C)[C@@H]1NC(=O)[C@H](CO)NC(=O)[C@H](CCCCN)NC(=O)[C@@H]2CSSC[C@@H](C(=O)N[C@@H](Cc3ccc(O)cc3)C(=O)O)NC(=O)[C@H](CCCCN)NC(=O)[C@@H]3CSSC[C@H](NC(=O)[C@H](CCC(N)=O)NC(=O)[C@H]([C@@H](C)CC)NC(=O)[C@H](CC(=O)O)NC(=O)[C@H](CC(=O)O)NC(=O)[C@H](CCC(=O)O)NC(=O)[C@H](CO)NC(=O)[C@H](Cc4c[nH]c5ccccc45)NC(=O)[C@@H]4CCCN4C(=O)CNC(=O)[C@H](CC(N)=O)NC(=O)[C@@H](NC(=O)CNC(=O)[C@H](Cc4ccccc4)NC(=O)CN)CSSC[C@H](NC(=O)[C@H](Cc4ccc(O)cc4)NC(=O)CNC(=O)CNC(=O)[C@H](CCCCN)NC(=O)[C@H](Cc4ccc(O)cc4)NC(=O)CNC(=O)[C@H](CCCCN)NC1=O)C(=O)N[C@@H](C)C(=O)N[C@@H](CCCNC(=N)N)C(=O)NCC(=O)NCC(=O)N[C@@H](Cc1ccccc1)C(=O)N[C@@H](C(C)C)C(=O)N3)C(=O)N[C@@H](Cc1c[nH]cn1)C(=O)N[C@@H](CC(N)=O)C(=O)N[C@@H](Cc1c[nH]cn1)C(=O)N2 [NZX] (H-GFGCNGPWSEDDIQCHNHCKSIKGYKGGYCARGGFVCKCY-OH; disulfide 4-30, 15-37, 19-39)
- Protein binding [1]: 89.25%
- time at which peak concentrations (Cmax) were observed ([2]; after intravenous administration, 5, 10, 20 mg/kg): 5 min
- Cmax over the three dose levels [2, 4]: 2.85 to 20.55 µg/mL
- T1/2 over the three dose levels [2, 4]: 19.2 to 30 min
- Vd over the three dose levels [2, 4]: 1469.10 to 2073.90 mL/kg
- T1/2, terminal elimination half-life ([2]; single intravenous 5 mg/kg, five mice per time point): 19.2 min
- AUC, area under concentration-time curves ([2]; single intravenous 5 mg/kg): 1.11 µg·h/mL
- Cmax, peak concentration ([2]; single intravenous 5 mg/kg): 2.85 µg/mL
- MRT, mean residence time ([2]; single intravenous 5 mg/kg): 19.2 min
- Vd, apparent distribution volume ([2]; single intravenous 5 mg/kg): 2073.90 mL/kg
- T1/2, terminal elimination half-life ([2]; single intravenous 10 mg/kg): 30 min
- AUC, area under concentration-time curves ([2]; single intravenous 10 mg/kg): 3.54 µg·h/mL
- Cmax, peak concentration ([2]; single intravenous 10 mg/kg): 6.53 µg/mL
- MRT, mean residence time ([2]; single intravenous 10 mg/kg): 38.4 min
- Vd, apparent distribution volume ([2]; single intravenous 10 mg/kg): 2045.41 mL/kg
- T1/2, terminal elimination half-life ([2]; single intravenous 20 mg/kg): 27 min
- AUC, area under concentration-time curves ([2]; single intravenous 20 mg/kg): 8.89 µg·h/mL
- Cmax, peak concentration ([2]; single intravenous 20 mg/kg): 20.55 µg/mL
- MRT, mean residence time ([2]; single intravenous 20 mg/kg): 33.6 min
- Vd, apparent distribution volume ([2]; single intravenous 20 mg/kg): 1469.10 mL/kg
- fAUC/MIC (S. aureus E48; [5]): 1.11
- fT > MIC (S. aureus E48; [5]): 0.33 h
- fAUC/MIC (S. aureus E48; [6]): 2.22
- fT > MIC (S. aureus E48; [6]): 0.67 h
- fAUC/MIC (S. aureus E48; [7]): 3.54
- fT > MIC (S. aureus E48; [7]): 0.94 h
- fAUC/MIC (S. aureus E48; [8]): 7.08
- fT > MIC (S. aureus E48; [8]): 1.88 h
- fAUC/MIC (S. aureus E48; [9]): 8.89
- fT > MIC (S. aureus E48; [9]): 2.05 h
- fAUC/MIC (S. aureus E48; [10]): 17.79
- fT > MIC (S. aureus E48; [10]): 4.09 h
- remaining at 24 h, 100 μg/ml [3]: 97%
